The values below come from PubChem BioAssay AID624375 (Broad Institute, 2012).

Structures are written as SMILES. Results filed as inconclusive are left out. Active and inactive are the calls of the source.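 Rule for the calls: active = fitted curve reaches -35% activity change at a concentration under twice the top valid dose, in every replicate test; inconclusive = replicate tests disagree on the call; inactive = the rest, including activity in the opposite direction.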 A value given as a limit tells only on which side of the number the result lay.

The first experiment deals with EBV-transformed LCL viability, CellTiter-Glo ATP luminescence, 48 h. The experiment in a line: LCL growth inhibition by ATP luminescence – cell-based, CellTiter-Glo, dry powder, replicate tests, EBV LMP1 NF-kB inhibitor project, dose response (AID 624375).
Details: not given
For orientation: ATP-based viability assays read luminescence as a measure of living cells.
Take `C/C(=N\NC(=S)N1CC2CCC(CC2)C1)c1cnccn1`: the AC35 is under 0.08 µM. Still for that read-out and setting: in the case of `C/C(=N\NC(=S)N1CCCCC1)c1ccccn1` it was under 0.08 µM; in that of `C=C1C[C@]23C[C@@]1(O)CC[C@@H]2c1cccc(C)c1[C@@H]3C(=O)O`, 9.19 µM; in that of `CCC(Sc1nnc2c3ccccc3n(Cc3ccc(Br)cc3)c2n1)C(=O)NCCCN1CCOCC1` (centres undefined), 8.58 µM.

Turning to `C[C@H](CO)N1C[C@H](C)[C@@H](CN(C)CC2CC2)OCCCC[C@H](C)Oc2ccc(NC(=O)Nc3cccc4ccccc34)cc2C1=O`, the AC35 was 43 µM.

Turning to `S=C(N/N=C(\c1ccccc1)c1ccccn1)N(Cc1ccccn1)Cc1ccccn1`, the AC35 is 0.135 µM. As for `CC(=O)Nc1nc(C)c(-c2csc(Nc3ccc(O)cc3)n2)s1`, the AC35 is 22.8 µM. The same measure, in the same setting: in the case of `COc1ccc2[nH]c(C(=O)N/N=C/c3ccc(O)cc3O)cc2c1` it was 26.7 µM. In the case of `Fc1ccc2c(c1)c1nnc(SCCN3CCOCC3)nc1n2Cc1ccccc1`, the AC35 was 4.38 µM. Still for that read-out and setting: the result for `C/C(=N\NC(=S)N1CC2CCC(CC2)C1)c1ccncn1` reads under 0.08 µM; that for `C/C(=N\NC(=S)Nc1ccccc1Cl)c1ccccn1`, under 0.08 µM.

Consider `C[C@@H]1CN([C@@H](C)CO)C(=O)c2cc(NC(=O)Nc3ccc(C(F)(F)F)cc3)ccc2O[C@@H](C)CCCCO[C@@H]1CN(C)CC1CCCCC1`, for which the AC35 was 45.7 µM. The same measure, in the same setting: the result for `C/C(=N\NC(=S)N1CCN(C2CCCCCC2)CC1)c1ccccn1` reads under 0.08 µM; that for `C[C@H]1CCCCO[C@@H](CN(C)CC2CCCCC2)[C@@H](C)CN([C@@H](C)CO)C(=O)c2cc(NC(=O)C3CCCCC3)ccc2O1`, 18.1 µM; that for `COc1ccc(NC(=O)c2ccc(OC(C)C(=O)O)cc2)cc1Cl` (centres undefined), 34.1 µM. Regarding `C/C(=N\NC(=S)Nc1cccc(C)c1)c1ccccn1`, the AC35 is under 0.08 µM. Same read-out and setting: the result for `C/C(=N\NC(=S)N1CCCC1)c1ccccn1` reads under 0.08 µM; that for `C[C@@H]1CCCCO[C@H](CN(C)C(=O)NC2CCCCC2)[C@H](C)CN([C@@H](C)CO)C(=O)c2cc(NC(=O)C3CCCCC3)ccc2O1`, 22.1 µM. The same measure, in the same setting: in the case of `Cc1ccnc(NC(=O)c2ccc(C(=O)c3ccccc3)cc2)c1` it was 24.1 µM. On to `C[C@@H]1CN([C@@H](C)CO)C(=O)c2cccc(NC(=O)Nc3cccc4ccccc34)c2O[C@H]1CN(C)C(=O)Nc1ccc(C(F)(F)F)cc1`, for which the AC35 is 29.8 µM.

On to `O=C1/C(=C/c2ccncc2)SC(=S)N1Cc1ccccc1`, for which the AC35 is 38.5 µM. Same read-out and setting: the result for `C/C(=N\NC(=S)Nc1ccc(C)cc1)c1ccccn1` reads under 0.08 µM. On the same count and under the same terms, the result for `C/C(=N\NC(=S)N1CC2CCC(CC2)C1)c1ccccn1` reads under 0.08 µM; that for `Cc1c(NC(=O)c2cccc(NC(=O)COc3ccccc3C#N)c2)c(=O)n(-c2ccccc2)n1C`, 45.6 µM; that for `CC(C)=CCN(C(=O)C#Cc1ccccc1)[C@H](CO)c1ccccc1`, 8.22 µM. The same measure, in the same setting: in the case of `C/C(=N\NC(=S)Nc1ccccc1)c1ccccn1` it was under 0.08 µM; in that of `CSC(=S)N/N=C(\C)c1cccc(C)n1`, 0.687 µM; in that of `O=c1[nH]c(=O)n([C@H]2C[C@H](O)[C@@H](CO)O2)cc1C(F)(F)F`, 10.1 µM. Turning to `CC12CCC3C(CC=C4CC(O)CCC43CO)C1CCC2OC(=O)c1ccccc1` (centres undefined), the AC35 is 45.6 µM. The same measure, in the same setting: the result for `C/C(=N\NC(=S)N1CCCCCC1)c1ccccn1` reads under 0.08 µM. Regarding `Cc1ccc(NC(=O)C2CCN(S(=O)(=O)c3ccc4c(c3)NC(=O)C(C)S4)CC2)cc1Cl` (centres undefined), the AC35 is 45.7 µM. Turning to `O=C(CSc1nnc2c3ccccc3n(Cc3ccccc3)c2n1)NCc1ccco1`, the AC35 is 44.1 µM. Still for that read-out and setting: in the case of `C/C(=N\NC(=S)N1CC2CCC(CC2)C1)c1cccc(C)n1` it was 0.409 µM; in that of `C/C(=N\NC(=S)N1CCN(c2ccccn2)CC1)c1ccccn1`, under 0.08 µM. Still for that read-out and setting: in the case of `S=C(NCc1ccccn1)N/N=C/c1ccccn1` it was under 0.08 µM. The same measure, in the same setting: in the case of `COCCCNC(=O)C(C)Sc1nnc2c3cc(C)ccc3n(Cc3ccccc3F)c2n1` (centres undefined) it was 25 µM. Consider `C/C(=N\NC(=S)N1CCC1)c1ccccn1`, for which the AC35 is under 0.08 µM. The same measure, in the same setting: the result for `Nc1ccn([C@@H]2O[C@H](CO)[C@@H](O)C2O)c(=O)n1` (some centres undefined) reads 26.1 µM. The same measure, in the same setting: in the case of `CCN1CCN(C(c2cccnc2)c2cc(Cl)c3cccnc3c2O)CC1` (centres undefined) it was 26.5 µM. On the same count and under the same terms, the result for `C[C@H](CO)N1C[C@H](C)[C@@H](CN(C)Cc2ccc(-c3ccccc3)cc2)Oc2ccc(NC(=O)Nc3cccc4ccccc34)cc2CC1=O` reads 28.8 µM; that for `C/C(=N\NC(=S)Nc1cccc(Cl)c1)c1ccccn1`, under 0.08 µM. As for `COc1ccccc1NC(=S)N/N=C(\C)c1ccccn1`, the AC35 was under 0.08 µM. Still for that read-out and setting: in the case of `CSc1nc(-c2ccc(C)cc2)nc(C(Cl)Cl)n1` it was 21.7 µM.

With `C[C@@H]1CN([C@@H](C)CO)C(=O)c2cc(NC(=O)Nc3ccc(C(F)(F)F)cc3)ccc2O[C@@H](C)CCCCO[C@H]1CN(C)Cc1ccc(C(F)(F)F)cc1`, the AC35 was 30.8 µM.

`C/C(=N\NC(=S)N1CCCCC1)c1cccc(C)n1`: the AC35 is under 0.08 µM.

`C[C@H](CO)N1C[C@H](C)[C@H](CN(C)C(=O)Nc2ccc(C(F)(F)F)cc2)OCCCC[C@H](C)Oc2ccc(NC(=O)Nc3ccc(F)cc3)cc2C1=O`: the AC35 was 21.5 µM. Same read-out and setting: in the case of `C[C@@H]1CN([C@@H](C)CO)C(=O)c2cc(NC(=O)Nc3ccc4c(c3)OCO4)ccc2O[C@H]1CN(C)CC1CCCCC1` it was 89.9 µM.

System in the next experiment: not listed separately
Described as above. The settings on record: EBV-transformed LCL viability, CellTiter-Glo ATP luminescence, 48 h; at 10 µM (top of the series).
Take `C/C=C/C/C=C/CCC(=O)[C@H]1O[C@H]1C(N)=O`: the activity change, negative = inhibition is -4.56% (inactive).

Staying with this experiment, now noted: EBV-transformed LCL viability, CellTiter-Glo ATP luminescence, 48 h; at 12 µM (top of the series).
In the case of `C=C1C[C@]23C[C@@]1(O)CC[C@H]2[C@@]12C=C[C@H](O)[C@@](C)(C(=O)O1)[C@H]2[C@@H]3C(=O)O`, the activity change, negative = inhibition is 5.8% (inactive).

The experiment is the same for the next values; noted with them: EBV-transformed LCL viability, CellTiter-Glo ATP luminescence, 48 h; at 19.5 µM (top of the series).
Turning to `COc1ccc(-c2csc3ncnc(NCCN4CCOCC4)c23)cc1`, the activity change, negative = inhibition is -6.51% (inactive).

As to `O=C(CCc1ccccc1)NC(c1cccs1)c1cc(Cl)c2cccnc2c1O` (centres undefined), the activity change, negative = inhibition was 4.93% (inactive). Same read-out and setting: the result for `CCn1c2ccccc2c2cc(/C=N/n3cnnc3)ccc21` reads -4.23% (inactive); that for `C=CCN1Cc2ccccc2[C@@H]2OC(c3ccc(OCCCO)cc3)=N[C@]2(CCC(=O)OC(C)(C)C)C1=O`, 1.04% (inactive); that for `CCc1ccc(/C=C/C(=O)C2C(=O)c3ccccc3C2=O)cc1`, 10.9% (inactive). For the compound `c1ccc(-c2cn3c4c(sc3n2)CCCC4)cc1`, the activity change, negative = inhibition is 6.87% (inactive).

`C[C@@H]1CCCCO[C@H](CN(C)C(=O)c2ccccc2)[C@H](C)CN([C@@H](C)CO)C(=O)c2cc(NC(=O)Nc3ccc(F)cc3)ccc2O1`: the activity change, negative = inhibition is 2.16% (inactive).

For `CCc1sc(C(=O)Nc2ncccc2O)cc1C`, the activity change, negative = inhibition was -13.2% (inactive).

As to `CCc1ccc(/C=C2\SC(=S)N(CCCC(=O)Nc3ccccn3)C2=O)cc1`, the activity change, negative = inhibition was 3.41% (inactive). Still for that read-out and setting: the result for `COc1ccc(-c2cc3nc4n(c(=O)c3s2)CCC4)cc1` reads -3.35% (inactive); that for `CCCSc1nnc2c3ccccc3n(Cc3ccccc3)c2n1`, -1.02% (inactive); that for `C[C@@H]1CCCCO[C@H](CN(C)S(=O)(=O)c2ccccc2)[C@@H](C)CN([C@@H](C)CO)C(=O)c2cc(N(C)C)ccc2O1`, -2.16% (inactive). On the same count and under the same terms, in the case of `CC1=C(C(=O)OCc2ccc3c(c2)OCO3)C(c2ccc(F)cc2)NC(=O)N1` (centres undefined) it was -2.46% (inactive); in that of `C[C@@H]1CCCCO[C@@H](CN(C)Cc2ccccc2)[C@H](C)CN([C@H](C)CO)C(=O)c2cc(NC(=O)Nc3ccc4c(c3)OCO4)ccc2O1`, 1.71% (inactive). Turning to `COc1cccc(/C=N/Nc2ncnc3c2ncn3Cc2ccccc2)c1O`, the activity change, negative = inhibition is -7.51% (inactive).
